In assay [1] the test system is Staphylococcus aureus Rosenbach (ATCC 25923). Kind of assay: Antibacterial microbroth dilution MIC/MBC against S. aureus. The class given is cell-based. The note with it: S. aureus Rosenbach ATCC 25923; for Relative antibacterial activity compared with another compound: 1 versus 2, 9 versus 8; for MIC / MIC90 / MBC90 (minimal bactericidal concentration) / MBC: Staphylococcus aureus; for MIC: ATCC25923, 24 h; for MIC90 / MBC90 (minimal bactericidal concentration) / MBC: ATCC25923; for MBC90 (minimal bactericidal concentration): read-out: MBC (IC90) / minimal bactericidal concentration (MBC90); for MBC: treated culture transferred to new media, read-out: MBC90 [(μM) mean ± SD]. The method, then: The minimum inhibition concentration (MIC) and the minimum bactericidal/fungicidal concentration (MBC/MFC) were carried out using the microbroth dilution method according to the Clinical Laboratory Standards Institute (CLSI) guidelines, with some modifications. […] The tested compounds were then incubated together with bacterial cells at 37 °C for 24 h and with fungal spores at 25 °C for 72 h, respectively. The OD600 measurements were subsequentially carried out to evaluate the inhibitory effect of the compounds. To further determine the bactericidal and fungicidal effects of the compounds, 5 µL of the treated culture was transferred onto new media microplates. The plates were incubated under the same condition, followed by the OD600 measurement. […] The cells were then treated with the compounds for 72 h at 37 °C in the presence of 5% CO2. Any Cytotoxic effect was detected with PrestoBlue™ cell viability reagent (ThermoFisher Scientific, Waltham, MA, USA). The cells were read with a fluorescence reading at an excitation of 560 nm and an emission 590 nm. Standard inhibitors, gentamicin (Gibco, Waltham, MA, USA), amphotericin (Sigma-Aldrich, St. Louis, MO, USA) and puromycin (Sigma-Aldrich, St. Louis, MO, USA) were used as the assay controls for the antibacterial, antifungal and cytotoxicity assay. […] GraphPad Prism 8 software (GraphPad, San Diego, CA, USA) was used for the analysis of the bioactivity to determine the respective IC90 and IC50 values.
(In broth dilution the organism is exposed to a series of concentrations in liquid medium.)

For assay [2], the system named is Clostridium difficile infections. Also on record: method as in PMID 25534727, PMID 22315981. The note with it: phase 2 clinical trial, humans; cited from earlier work.
Where [3] appears, read: Figure 5, read-out: MIC (IC90) / minimal inhibitory concentration (MIC90).
Setting [4] is: 37 °C, 24 h, OD600, mean ± SD, triplicates, read-out: MIC90 [(μM) mean ± SD].

Each structure is given as a SMILES string. Converted amounts (≈) assume the structure as drawn. “Also recorded” adds a separate entry of the source. Like-named read-outs stand apart in the source and are kept apart here. Some results are limits rather than exact numbers.

With `CNC(=O)CC1NC(=O)c2csc(n2)-c2ccc(-c3nc(C4=NC(C(=O)N5CCCC5C(=O)O)CO4)cs3)nc2-c2csc(n2)-c2csc(n2)C(C(O)c2ccccc2)NC(=O)CNC(=O)c2nc(sc2COC)C(C(C)C)NC(=O)c2nc1sc2C` (centres unmarked) [Compound 1, GE2270F1], in assay [1], the “Antibacterial activity against S. aureus (in words)” value (“Antibacterial activity … (in words)” below) was “displayed activities” and the “Relative antibacterial activity compared with another compound” value was “three-fold more active”. In assay [1] (setting [3]), the MIC stood at 2.63 µM (≈ 3.4 µg/mL) and the MIC90 worked out at 2.63 µM (≈ 3.4 µg/mL). For the same compound, the MIC90 in assay [1] (setting [4]) is 2.63 ± 0.12 µM (≈ 3.4 µg/mL). Besides, in assay [1] (Figure 5), the MBC90 (minimal bactericidal concentration) came to 18.5 µM (≈ 23.9 µg/mL). Also, in assay [1] (OD600, mean ± SD, triplicates), the MBC turned out to be 18.5 ± 1.34 µM (≈ 23.9 µg/mL).
For `CNC(=O)CC1NC(=O)c2csc(n2)-c2ccc(-c3nc(C4=NC(C(=O)N5CCCC5C(=O)O)CO4)cs3)nc2-c2csc(n2)-c2csc(n2)C(C(O)c2ccccc2)NC(=O)CNC(=O)c2csc(n2)C(C(C)C)NC(=O)c2nc1sc2C` (centres unmarked) [Compound 2, GE2270F2], in assay [1], the “Antibacterial activity … (in words)” value is on record as “displayed activities”. For the same compound, the MIC90 in assay [1] (setting [4]) came to 6.94 ± 0.83 µM (≈ 8.66 µg/mL); in assay [1] (setting [3]) it was 6.94 µM (≈ 8.66 µg/mL). Also, in assay [1] (Figure 5), the MBC90 (minimal bactericidal concentration) amounted to 67.9 µM (≈ 84.7 µg/mL). Moreover, the MBC in assay [1] (OD600, mean ± SD, triplicates) was 67.9 ± 1.55 µM (≈ 84.7 µg/mL).
For `CNC(=O)CC1NC(=O)c2csc(n2)-c2ccc(-c3nc(C4=NC(C(=O)N5CCCC5C(=O)O)CO4)cs3)nc2-c2csc(n2)-c2csc(n2)C(C(O)c2ccccc2)NC(=O)CNC(=O)c2csc(n2)C(C(C)C)NC(=O)c2csc1n2` (centres unmarked) [Compound 3, GE2270F3], the “Antibacterial activity … (in words)” value in assay [1] was “inactive; also recorded: no bioactivity”. Besides, in assay [1] (setting [3]), the MIC is 2 to 11 µM (≈ 2.47 to 13.6 µg/mL). Further, the MIC90 in assay [1] (setting [4]) and in assay [1] (setting [3]) was over 70 µM throughout. For the same compound, the MBC90 (minimal bactericidal concentration) in assay [1] (Figure 5) is over 70 µM. The MBC in assay [1] (OD600, mean ± SD, triplicates) was over 70 µM.
Turning to `CNC(=O)CC1NC(=O)c2csc(n2)-c2ccc(-c3nc(C4=NC(C(=O)N5CCCC5C(=O)O)CO4)cs3)nc2-c2csc(n2)-c2csc(n2)C(C(O)c2ccccc2)NC(=O)CNC(=O)c2nc(sc2COC)C(C(C)C)NC(=O)c2csc1n2` (centres unmarked) [Compound 4, GE2270F4], the “Antibacterial activity … (in words)” value in assay [1] is “inactive; also recorded: no bioactivity”. Moreover, the MIC in assay [1] (setting [3]) was 2 to 11 µM (≈ 2.56 to 14.1 µg/mL). In addition, the MIC90 in assay [1] (setting [4]) and in assay [1] (setting [3]) was over 70 µM each time. Besides, the MBC90 (minimal bactericidal concentration) in assay [1] (Figure 5) was over 70 µM. In assay [1] (OD600, mean ± SD, triplicates), the MBC was over 70 µM.
Turning to `CNC(=O)C[C@@H]1NC(=O)c2csc(n2)-c2ccc(-c3nc(C(=O)N[C@@H](CO)C(=O)N4CCC[C@H]4C(N)=O)cs3)nc2-c2csc(n2)-c2csc(n2)[C@H]([C@@H](O)c2ccccc2)NC(=O)CNC(=O)c2csc(n2)[C@H](C(C)C)NC(=O)c2nc1sc2C` [Compound 5], the “Antibacterial activity … (in words)” value in assay [1] is “inactive”. Besides, in assay [1] (setting [3]), the MIC lay within 2 to 11 µM (≈ 2.53 to 13.9 µg/mL) and the MIC90 was over 70 µM. In addition, the MIC90 in assay [1] (setting [4]) is over 70 µM. In addition, the MBC90 (minimal bactericidal concentration) in assay [1] (Figure 5) was over 70 µM. Also, the MBC in assay [1] (OD600, mean ± SD, triplicates) was over 70 µM.
On to `CNC(=O)C[C@@H]1NC(=O)c2csc(n2)-c2ccc(-c3nc(C(=O)N[C@@H](CO)C(=O)N4CCC[C@H]4C(N)=O)cs3)nc2-c2csc(n2)-c2csc(n2)[C@H]([C@@H](O)c2ccccc2)NC(=O)CNC(=O)c2nc(sc2COC)[C@H](C(C)C)NC(=O)c2nc1sc2C` [Compound 6], for which the “Antibacterial activity … (in words)” value in assay [1] is reported as “displayed activities; also recorded: demonstrated antibacterial activity”. For the same compound, the MIC in assay [1] (setting [3]) lay in the range of 2 to 11 µM (≈ 2.62 to 14.4 µg/mL). The MIC90 in assay [1] (setting [4]) was determined as 7.07 ± 0.55 µM (≈ 9.25 µg/mL); in assay [1] (setting [3]), 7.07 µM (≈ 9.25 µg/mL).
For `CNC(=O)C[C@@H]1NC(=O)c2csc(n2)-c2ccc(-c3nc(C(=O)OC)cs3)nc2-c2csc(n2)-c2csc(n2)[C@H]([C@@H](O)c2ccccc2)NC(=O)CNC(=O)c2csc(n2)[C@H](C(C)C)NC(=O)c2nc1sc2C` [Compound 7], in assay [1], the “Antibacterial activity … (in words)” value is “displayed activities”. Further, the MIC90 in assay [1] (setting [4]) worked out at 4.71 ± 0.37 µM (≈ 5.16 µg/mL); in assay [1] (setting [3]), 4.71 µM (≈ 5.16 µg/mL). Moreover, the MBC90 (minimal bactericidal concentration) in assay [1] (Figure 5) came to 12.4 µM (≈ 13.6 µg/mL). Moreover, the MBC in assay [1] (OD600, mean ± SD, triplicates) was 12.4 ± 1.06 µM (≈ 13.6 µg/mL).
For `CNC(=O)C[C@@H]1NC(=O)c2csc(n2)-c2ccc(-c3nc(C(=O)OC)cs3)nc2-c2csc(n2)-c2csc(n2)[C@H]([C@@H](O)c2ccccc2)NC(=O)CNC(=O)c2nc(sc2COC)[C@H](C(C)C)NC(=O)c2nc1sc2C` [Compound 8], the “Antibacterial activity … (in words)” value in assay [1] is on record as “displayed activities”. Further, in assay [1] (setting [3]), the MIC turned out to be 3.17 µM (≈ 3.61 µg/mL) and the MIC90 came to 3.17 µM (≈ 3.61 µg/mL). Further, the MIC90 in assay [1] (setting [4]) was determined as 3.17 ± 0.28 µM (≈ 3.61 µg/mL). The MBC90 (minimal bactericidal concentration) in assay [1] (Figure 5) was determined as 16.2 µM (≈ 18.5 µg/mL). Also, the MBC in assay [1] (OD600, mean ± SD, triplicates) is 16.2 ± 1.48 µM (≈ 18.5 µg/mL).
With `CNC(=O)C[C@@H]1NC(=O)c2csc(n2)-c2ccc(-c3nc(C(=O)O)cs3)nc2-c2csc(n2)-c2csc(n2)[C@H]([C@@H](O)c2ccccc2)NC(=O)CNC(=O)c2nc(sc2COC)[C@H](C(C)C)NC(=O)c2nc1sc2C` [Compound 9], in assay [1], the “Antibacterial activity … (in words)” value was “displayed activities”. Also, the “Relative antibacterial activity compared with another compound” value in assay [1] is on record as “at least a three-fold reduction”. The MIC90 in assay [1] (setting [4]) came out at 10.3 ± 0.75 µM (≈ 11.6 µg/mL); in assay [1] (setting [3]), 10.3 µM (≈ 11.6 µg/mL). Further, the MBC90 (minimal bactericidal concentration) in assay [1] (Figure 5) came out at 52 µM (≈ 58.5 µg/mL). For the same compound, the MBC in assay [1] (OD600, mean ± SD, triplicates) came out at 52 ± 1.41 µM (≈ 58.5 µg/mL).
As for `CNC(C)C1CCC(N)C(OC2C(N)CC(N)C(OC3OCC(C)(O)C(NC)C3O)C2O)O1` (centres unmarked) [Gentamicin, gentamicin, reference compound], the MIC90 is 0.04 ± 0.01 µM (≈ 0.0191 µg/mL) in assay [1] (setting [4]) and 0.04 µM (≈ 0.0191 µg/mL) in assay [1] (setting [3]). Further, the MBC90 (minimal bactericidal concentration) in assay [1] (Figure 5) was 0.1 µM (≈ 0.0478 µg/mL). Further, the MBC in assay [1] (OD600, mean ± SD, triplicates) was determined as 0.1 ± 0.01 µM (≈ 0.0478 µg/mL).
In the case of `CNC(=O)C[C@@H]1NC(=O)c2csc(n2)-c2ccc(-c3nc(N(CCCCC(=O)O)C(=O)O[C@H]4CC[C@H](C(=O)O)CC4)cs3)nc2-c2csc(n2)-c2csc(n2)[C@H]([C@@H](O)c2ccccc2)NC(=O)CNC(=O)c2nc(sc2COC)[C@H](C(C)C)NC(=O)c2nc1sc2C` [LFF571], the “Recurrence rates versus vancomycin” value in assay [2] is “higher recurrence rates than conventional antibiotics treatment with vancomycin”.

Source of the values: paper PMC9822014, “Antibacterial Thiopeptide GE2270-Congeners from Nonomuraea jiangxiensis” (Molecules, 2022).
